Test results from US6833353B1, “Use of immunosuppressants for MMP mediated diseases” (Fujisawa Pharmaceutical Co., Ltd., priority 1998, dated 2004).
Marks after values point to notes of the source that are not given here.

Experiments:
Format in all cases: in vivo, Lewis rats
cartilage degradation = experiment: Cartilage degradation in cotton-wrapped cartilage implant model (hydroxyproline content of implanted cartilage)
collagenase = experiment: Collagenolytic activity in granulomatous tissue extract, implant model; settings: day 14
Protocol: (§1) Bone and excess tissue overlying the cartilage was removed under sterile conditions, in an airflow hood. The septum was washed in 70% ethanol before the cartilage was cut to a weight of 40×2mg. The cartilages were wrapped tightly in sterile cotton squares and soaked in 0.1 ml of a 10 mg/ml homogenized suspension of heat-killed Mycobacterium tuberculosis H37RA (Difco) in saline. Eight cartilages were stored in −20° C., these were to measure the levels of collagen in non-implanted cartilages.
(§2) Eight weeks old female Lewis rats were anaesthetized using halothane. The stomach area was shaved and swabbed with ethanol. […]
(§3) The granulomatous tissues were homogenized in 1 ml of 50 mM Tris, pH 7.5 containing 5 mM CaCl2, 0.1% Triton X-100 and 0.02% NaN3) After centrifugation of the extract at 15000 rpm for 10 min to remove debris, the supernatant was assayed for collagenolytic activity, gelatinolytic activity, tumor necrosis factor-α (TNF-α) level and Interferon-γ (IFN-γ) level. Collagenolytic and gelatinolytic activities in the extracts were measured using commercial assay kits (YAGAI, Japan). Cytokines levels were also measured using ELISA kits (Cosmo Bio, Japan). The protein contents in the extracts was determined using the method of Lowry.
(§4) Data is expressed as mean±SEM. The significance of differences was determined by Dunnett's multiple comparison test (*p<0.05, **p<0.01).

gelatinase = experiment: Gelatinolytic activity in granulomatous tissue extract, implant model; settings: day 14
Protocol: as §1, §2, §3, §4

TNF-α = TNF-α level in granulomatous tissue extract (ELISA), implant model; settings: day 14
Protocol: as §1, §2, §3, §4

IFN-γ = IFN-γ level in granulomatous tissue extract (ELISA), implant model; settings: day 14
Protocol: as §1, §2, §3, §4

C=CC[C@@H]1/C=C(\C)C[C@H](C)C[C@H](OC)[C@H]2O[C@@](O)(C(=O)C(=O)N3CCCC[C@H]3C(=O)O[C@H](/C(C)=C/[C@@H]3CC[C@@H](O)[C@H](OC)C3)[C@H](C)[C@@H](O)CC1=O)[C@H](C)C[C@@H]2OC [FK506, 17-allyl-1,14-dihydroxy-12-[2-(4-hydroxy-3-methoxycyclohexyl)-1-methylvinyl]-23,25-dimethoxy-13,19,21,27-tetramethyl-11,28-dioxa-4-azatricyclo[22.3.1.0^4,9] octacos-18-ene-2,3,10,16-tetraone]
Recovery (%) of Hydroxyproline (cartilage degradation; 3.2 mg/kg po once daily, 14 days, implanted bovine nasal cartilage, rat): 61.9** % | inhibition of the decrease of hydroxyproline contents in cartilage (cartilage degradation; 3.2 mg/kg po, uid, rat implant model): 62% | inhibition (%) collagenase (collagenase; 1.0 mg/kg po once daily): 7.7% | inhibition (%) collagenase (collagenase; 3.2 mg/kg po once daily): 29.8% | inhibition (%) gelatinase (gelatinase; 1.0 mg/kg po once daily): 67.9* % | inhibition (%) gelatinase (gelatinase; 3.2 mg/kg po once daily): 82.1** % | inhibition (%) TNF-α (TNF-α; 1.0 mg/kg po once daily): 43.9** % | inhibition (%) TNF-α (TNF-α; 3.2 mg/kg po once daily): 56.6** % | inhibition (%) IFN-γ (IFN-γ; 1.0 mg/kg po once daily): 58.1% | inhibition (%) IFN-γ (IFN-γ; 3.2 mg/kg po once daily): 73.4* %
